Experimental data from article PMC3320663 (Chemmedchem, 2011).
Where two headings read alike, the source gives them in different places.

Target: T1, TbTryS (Trypanosoma brucei, UniProt Q586P2)
T1 sequence (Q586P2 1-627): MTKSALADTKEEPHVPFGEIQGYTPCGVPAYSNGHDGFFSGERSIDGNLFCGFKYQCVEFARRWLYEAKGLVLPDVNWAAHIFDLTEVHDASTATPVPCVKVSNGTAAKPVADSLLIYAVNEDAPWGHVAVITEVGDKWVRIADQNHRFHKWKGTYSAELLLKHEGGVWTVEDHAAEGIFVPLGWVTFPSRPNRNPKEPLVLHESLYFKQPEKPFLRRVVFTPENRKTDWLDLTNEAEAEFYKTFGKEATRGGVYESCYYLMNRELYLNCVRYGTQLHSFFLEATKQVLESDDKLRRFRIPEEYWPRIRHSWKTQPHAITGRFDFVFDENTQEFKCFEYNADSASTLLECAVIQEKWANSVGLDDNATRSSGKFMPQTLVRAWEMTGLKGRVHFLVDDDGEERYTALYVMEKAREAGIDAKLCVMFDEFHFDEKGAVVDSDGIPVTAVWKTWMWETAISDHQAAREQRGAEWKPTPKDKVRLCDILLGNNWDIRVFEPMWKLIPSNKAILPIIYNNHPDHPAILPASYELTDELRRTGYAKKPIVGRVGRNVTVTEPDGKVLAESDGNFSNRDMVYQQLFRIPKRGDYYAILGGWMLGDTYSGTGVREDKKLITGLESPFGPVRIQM
Test: Trypanothione synthetase
Type: biochemical
Conditions: for loss in activity (heterocycle at indazole position 3): indazole series, initial compound 60; for LE (ligand efficiency): calculated as −0.6×ln(IC50)/(heavy atom count)

| Compound | IC50 (TbTryS IC50) | LE (ligand efficiency) | other results |
| --- | --- | --- | --- |
| CC(C)(C)C(=O)Cn1nc(-c2cccc3[nH]ccc23)c2ccccc21 [Compound 62, 1-(3-(1H-Indol-4-yl)-1H-indazol-1-yl)-3,3-dimethylbutan-2-one] | 3700 nM |  |  |
| Fc1cccc(-c2nn(Cc3cccnc3)c3ccccc23)c1 [Compound 76, 3-(3-Fluorophenyl)-1-(pyridin-3-ylmethyl)-1H-indazole] | 4500 nM | 0.32 |  |
| Cn1ccc2c(-c3nn(CC(=O)C(C)(C)C)c4ccccc34)cccc21 [Compound 63, 3,3-Dimethyl-1-(3-(1-methyl-1H-indol-4-yl)-1H-indazol-1-yl)butan-2-one] | > 100000 nM |  |  |
| O=C(Cn1nc(-c2cccc(F)c2)c2ccccc21)NCc1ccc(Cl)cc1 [Compound 86, N-(4-Chlorobenzyl)-2-(3-(3-fluorophenyl)-1H-indazol-1-yl)acetamide] | > 100000 nM |  |  |
| N-Methyl-(3-(dimethylamino)propyl)-2-(3-(3-fluorophenyl)-1H-indazol-1-yl)acetamide [Compound 85] |  | 0.35 | IC50 (read-out: TbTryS IC50): 170 nM |
| CC(C)(C)C(=O)Cn1nnc(-c2ccccc2)n1 [Compound 14, 3,3-Dimethyl-1-(5-phenyl-2H-tetrazol-2-yl)butan-2-one] | 8800 nM | 0.39 |  |
| CC(C)(C)C(=O)Cn1nc(-c2ccc3ccccc3c2)c2ccccc21 [Compound 64, 3,3-Dimethyl-1-(3-(naphthalen-2-yl)-1H-indazol-1-yl)butan-2-one] | > 100000 nM |  |  |
| CCN(CC)C(=O)Cn1nc(C(F)(F)F)c2c1CCCC2 [Compound 35, N,N-Diethyl-2-(3-(trifluoromethyl)-4,5,6,7-tetrahydro-1H-indazol-1-yl)acetamide] | 15000 nM |  | TbTryS activity in words: retained some inhibitory activity |
| CC(C)(C)C(=O)Cn1nc(-c2cccnc2)c2ccccc21 [Compound 67, 1-(3-(3-Pyridyl)-1H-indazol-1-yl)-3,3-dimethylbutan-2-one] | 3000 nM | 0.35 | loss in activity (heterocycle at indazole position 3): 10 fold |
| Cc1cc(Cn2nc(-c3cccc(F)c3)c3ccccc32)no1 [Compound 79, 3-((3-(3-Fluorophenyl)-1H-indazol-1-yl)methyl)-5-methylisoxazole] | > 100000 nM |  |  |
| CC(=O)Cn1nnc(-c2cc(Cl)cc(Cl)c2)n1 [Compound 21, 1-(5-(3,5-Dichlorophenyl)-2H-tetrazol-2-yl)propan-2-one] | 6500 nM |  |  |
| Cc1ccccc1-c1csc(CS(=O)(=O)C(C)(C)C)n1 [Compound 4, 2-((tert-Butylsulfonyl)methyl)-4-(2-methylphenyl)thiazole] | 3200 nM |  |  |
| Cc1nn(-c2ccccc2)nc1CNS(=O)(=O)C(C)(C)C [Compound 42, 2-Methyl-N-((5-methyl-2-phenyl-2H-1,2,3-triazol-4-yl)methyl)propane-2-sulfonamide] | 37000 nM |  |  |
| CC(C)(C)C(=O)Cn1nc(-c2ccc(Cl)cc2)c2ccccc21 [Compound 61, 1-(3-(4-Chlorophenyl)-1H-indazol-1-yl)-3,3-dimethylbutan-2-one] | > 100000 nM |  |  |
| CC(C)Cn1cc(-c2nn(CC(=O)C(C)(C)C)c3ccccc23)cn1 [Compound 69, 1-(3-(1-Isobutyl-1H-pyrazol-4-yl)-1H-indazol-1-yl)-3,3-dimethylbutan-2-one] | > 100000 nM |  |  |
| O=C(Cn1nnc(-c2cc(F)cc(F)c2)n1)c1ccccc1 [Compound 24, 2-(5-(3,5-Difluorophenyl)-2H-tetrazol-2-yl)-1-phenylethanone] | 45000 nM |  |  |
| 3-(tert-Butylsulfonylmethyl)-1-(3-fluorophenyl)-1H-indazole [Compound 73] |  | 0.41 | IC50 (read-out: TbTryS IC50): 80 nM |
| Cc1nc(Cn2nc(-c3cccc(F)c3)c3ccccc32)c(C)o1 [Compound 77, 4-((3-(3-Fluorophenyl)-1H-indazol-1-yl)methyl)-2,5-dimethyloxazole] | 28000 nM | 0.26 |  |
| COc1cccc(-c2csc(CS(=O)(=O)C(C)(C)C)n2)c1 [Compound 6, 2-((tert-Butylsulfonyl)methyl)-4-(3-methoxyphenyl)thiazole] | 12000 nM |  | loss in potency relative to unsubstituted compound 3: 10 fold |

Further compounds by falling IC50 (TbTryS IC50), results first:

| IC50 (TbTryS IC50) | LE (ligand efficiency) | Compound | other results |
| --- | --- | --- | --- |
| 2900 nM | 0.22 | CC(C)(C)OC(=O)N1CCN(CCNC(=O)Cn2nc(-c3cccc(F)c3)c3ccccc32)CC1 [Compound 82, tert-Butyl-4-(2-(2-(3-(3-fluorophenyl)-1H-indazol-1-yl)acetamido)ethyl)piperazine-1-carboxylate] |  |
| 2900 nM | 0.33 | Fc1cccc(-c2nn(Cc3ccccn3)c3ccccc23)c1 [Compound 75, 3-(3-Fluorophenyl)-1-(pyridin-2-ylmethyl)-1H-indazole] |  |
| 2700 nM |  | CCC(=O)Cn1nnc(-c2cc(Cl)cc(Cl)c2)n1 [Compound 22, 1-(5-(3,5-Dichlorophenyl)-2H-tetrazol-2-yl)butan-2-one] |  |
| 1900 nM |  | CC(C)(C)C(=O)Cn1nc(-c2ccco2)c2ccccc21 [Compound 66, 1-(3-(Furan-2-yl)-1H-indazol-1-yl)-3,3-dimethylbutan-2-one] | loss in activity (heterocycle at indazole position 3): 10 fold |
| 1900 nM |  | CC(C)(C)C(=O)Cn1nnc(-c2cc(F)cc(F)c2)n1 [Compound 19, 1-(5-(3,5-Difluorophenyl)-2H-tetrazol-2-yl)-3,3-dimethylbutan-2-one] |  |
| 1500 nM |  | CC(C)(C)C(=O)Cn1nnc(-c2cccc(F)c2)n1 [Compound 17, 1-(5-(3-Fluorophenyl)-2H-tetrazol-2-yl)-3,3-dimethylbutan-2-one] |  |
| 1200 nM |  | CC(C)(C)S(=O)(=O)Cc1nc(-c2ccccc2)cs1 [Compound 3, 2-((tert-Butylsulfonyl)methyl)-4-(phenyl)thiazole] |  |
| 1100 nM |  | CC(C)(C)S(=O)(=O)Cc1nc(-c2ccccc2F)cs1 [Compound 5, 2-((tert-Butylsulfonyl)methyl)-4-(2-fluorophenyl)thiazole] |  |
| 1100 nM |  | CC(C)(C)S(=O)(=O)Cc1nc(-c2cccc(C(F)(F)F)c2)cs1 [Compound 7, 2-(tert-Butylsulfonylmethyl)-4-(3-trifluoromethylphenyl)thiazole] |  |
| 860 nM | 0.29 | CN1CCN(CCNC(=O)Cn2nc(-c3cccc(F)c3)c3ccccc32)CC1 [Compound 90, 2-(3-(3-Fluorophenyl)-1H-indazol-1-yl)-N-(2-(4-methylpiperazin-1-yl)ethyl)acetamide] |  |
| 600 nM |  | CN(C)C(=O)Cn1nnc(-c2cc(Cl)cc(Cl)c2)n1 [Compound 23, 2-(5-(3,5-Dichlorophenyl)-2H-tetrazol-2-yl)-N,N-dimethylacetamide] |  |
| 400 nM | 0.42 | CC(C)(C)C(=O)Cn1nc(-c2ccsc2)c2ccccc21 [Compound 68, 3,3-Dimethyl-1-(3-(thiophen-3-yl)-1H-indazol-1-yl)butan-2-one] |  |
| 400 nM |  | CC(C)(C)S(=O)(=O)Cc1nc(-c2cccc(F)c2)cs1 [Compound 9, 2-(tert-Butylsulfonylmethyl)-4-(3-fluorophenyl)thiazole] |  |
| 350 nM | 0.39 | CC(C)(C)C(=O)Cn1nc(-c2cccc(Cl)c2)c2ccccc21 [Compound 70, 1-(3-(3-Chlorophenyl)-1H-indazol-1-yl)-3,3-dimethylbutan-2-one] | IC50 (TbTryS IC50, values in running text): 354 nM |
| 350 nM | 0.32 | O=C(Cn1nc(-c2cccc(F)c2)c2ccccc21)NCCCn1ccnc1 [Compound 81, N-(3-(1H-Imidazol-1-yl)propyl)-2-(3-(3-fluorophenyl)-1H-indazol-1-yl)acetamide] | decrease in potency relative to 84: eight |
| 300 nM |  | CC(C)(C)C(=O)Cn1nc(-c2ccncc2)c2ccccc21 [Compound 65, 3,3-Dimethyl-1-(3-(pyridin-4-yl)-1H-indazol-1-yl)butan-2-one] |  |
| 300 nM | 0.45 | CC(C)(C)C(=O)Cn1nnc(-c2cc(Cl)cc(Cl)c2)n1 [Compound 20, 1-(5-(3,5-Dichlorophenyl)-2H-tetrazol-2-yl)-3,3-dimethylbutan-2-one] | gain in potency relative to unsubstituted scaffold 14: 25 fold |
| 220 nM | 0.40 | CC(C)(C)S(=O)(=O)Cc1nn(-c2ccccc2)c2ccccc12 [Compound 72, 3-(tert-Butylsulfonylmethyl)-1-phenyl-1H-indazole] |  |
| 200 nM | 0.39 | CCN(CC)C(=O)Cn1nc(-c2cccc(F)c2)c2ccccc21 [Compound 87, N,N-Diethyl-2-(3-(3-fluorophenyl)-1H-indazol-1-yl)acetamide] |  |
| 145 nM | 0.38 | CN(C)CCNC(=O)Cn1nc(-c2cccc(F)c2)c2ccccc21 [Compound 83, N-(2-(Dimethylamino)ethyl)-2-(3-(3-fluorophenyl)-1H-indazol-1-yl)acetamide] |  |
| 120 nM | 0.40 | CC(C)(C)S(=O)(=O)Cn1nc(-c2cccc(F)c2)c2ccccc21 [Compound 74, 1-(tert-Butylsulfonylmethyl)-3-(3-fluorophenyl)-1H-indazole] |  |
| 110 nM | 0.44 | CN(C)C(=O)Cn1nc(-c2cccc(F)c2)c2ccccc21 [Compound 88, 2-(3-(3-Fluorophenyl)-1H-indazol-1-yl)-N,N-dimethylacetamide] |  |
